Biological target: T1, PIN1 (Homo sapiens, UniProt Q13526)
T1 construct: recombinant human PIN1
Assay: trypsin-coupled PPIase assay (kinact/Ki; IC50 […]); LC/MS and MALDI MS/MS show a +[…] Da adduct on C113, absent in C113A
Assay type: biochemical
Conditions: read-out: Ki

T1 sequence (Q13526 whole entry): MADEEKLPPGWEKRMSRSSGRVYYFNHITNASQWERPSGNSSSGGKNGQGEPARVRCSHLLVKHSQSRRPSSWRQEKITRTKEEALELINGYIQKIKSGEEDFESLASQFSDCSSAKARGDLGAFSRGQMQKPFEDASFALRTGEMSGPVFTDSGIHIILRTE

## CC(C)(C)c1ccc(S(=O)(=O)/N=C2/C=C(SCC(=O)O)C(=O)c3ccccc32)cc1 [compound 1]
  KI (inactivation): 625 ± 325 nM
